Laboratory results as given in US20100137449A1, “SUBSTITUTED 1,3-CYCLOPENTADIONE MULTI-TARGET PROTEIN KINASE MODULATORS OF CANCER, ANGIOGENESIS AND THE INFLAMMATORY PATHWAYS ASSOCIATED THEREWITH” (METAPROTEOMICS, LLC, priority 2007, published 2010).

Experiments:
Assay in all cases: KinaseProfiler Assay
Abl(Q252H)(h) = Abl(Q252H)(h) (Homo sapiens, UniProt P00519, Q252H)
BrSK1(h) = biological target: T1, BrSK1(h) (Homo sapiens, UniProt Q8TDC3)
T1 sequence (Q8TDC3 1-778): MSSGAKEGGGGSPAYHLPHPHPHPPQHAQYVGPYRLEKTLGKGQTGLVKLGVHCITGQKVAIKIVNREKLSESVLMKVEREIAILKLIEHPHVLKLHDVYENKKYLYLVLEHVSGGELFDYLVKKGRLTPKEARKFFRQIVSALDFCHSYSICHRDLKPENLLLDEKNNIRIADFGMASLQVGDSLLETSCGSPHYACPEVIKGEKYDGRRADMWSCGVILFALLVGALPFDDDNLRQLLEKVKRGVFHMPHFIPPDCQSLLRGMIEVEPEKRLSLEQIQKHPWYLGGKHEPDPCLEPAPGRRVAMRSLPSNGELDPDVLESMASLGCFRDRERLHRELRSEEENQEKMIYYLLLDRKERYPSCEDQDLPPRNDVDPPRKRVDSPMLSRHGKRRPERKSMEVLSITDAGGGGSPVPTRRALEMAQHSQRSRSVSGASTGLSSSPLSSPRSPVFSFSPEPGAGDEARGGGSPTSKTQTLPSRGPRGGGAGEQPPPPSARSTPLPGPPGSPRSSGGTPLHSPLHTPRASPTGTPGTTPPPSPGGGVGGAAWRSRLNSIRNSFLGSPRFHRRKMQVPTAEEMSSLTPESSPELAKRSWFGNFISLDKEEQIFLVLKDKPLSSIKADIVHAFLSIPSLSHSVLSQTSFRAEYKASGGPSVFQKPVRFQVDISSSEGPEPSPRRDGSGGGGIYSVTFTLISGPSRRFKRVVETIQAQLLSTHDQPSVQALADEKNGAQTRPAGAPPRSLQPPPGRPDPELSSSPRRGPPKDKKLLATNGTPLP

DAPK2(h) = DAPK2(h) (Homo sapiens, UniProt Q9UIK4)
DAPK2(h), sequence (Q9UIK4 whole entry): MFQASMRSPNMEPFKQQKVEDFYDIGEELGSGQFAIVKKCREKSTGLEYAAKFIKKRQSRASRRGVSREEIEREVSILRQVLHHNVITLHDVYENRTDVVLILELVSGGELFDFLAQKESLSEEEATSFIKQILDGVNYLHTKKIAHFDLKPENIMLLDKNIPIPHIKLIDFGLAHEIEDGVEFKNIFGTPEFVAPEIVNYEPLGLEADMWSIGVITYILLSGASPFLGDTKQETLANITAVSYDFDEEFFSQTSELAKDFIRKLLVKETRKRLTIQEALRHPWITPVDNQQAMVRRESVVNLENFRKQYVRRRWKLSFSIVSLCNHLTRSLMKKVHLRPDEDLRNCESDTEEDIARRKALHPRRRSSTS

GSK3β(h) = GSK3β(h) (Homo sapiens, UniProt P49841)
GSK3β(h), sequence (P49841 whole entry): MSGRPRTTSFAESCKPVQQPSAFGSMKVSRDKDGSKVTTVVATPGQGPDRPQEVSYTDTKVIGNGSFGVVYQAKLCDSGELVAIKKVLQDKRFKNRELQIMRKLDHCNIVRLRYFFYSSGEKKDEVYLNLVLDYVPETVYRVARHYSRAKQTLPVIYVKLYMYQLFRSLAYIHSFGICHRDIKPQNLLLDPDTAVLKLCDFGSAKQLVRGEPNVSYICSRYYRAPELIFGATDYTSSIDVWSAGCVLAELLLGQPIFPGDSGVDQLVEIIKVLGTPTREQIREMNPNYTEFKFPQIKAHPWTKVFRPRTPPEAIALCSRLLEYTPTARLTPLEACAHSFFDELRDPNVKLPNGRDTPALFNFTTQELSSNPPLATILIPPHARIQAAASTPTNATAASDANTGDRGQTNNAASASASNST

MKK7β(h) = biological target: T2, MKK7β(h) (Homo sapiens, UniProt O14733)
T2 sequence (O14733 1-419): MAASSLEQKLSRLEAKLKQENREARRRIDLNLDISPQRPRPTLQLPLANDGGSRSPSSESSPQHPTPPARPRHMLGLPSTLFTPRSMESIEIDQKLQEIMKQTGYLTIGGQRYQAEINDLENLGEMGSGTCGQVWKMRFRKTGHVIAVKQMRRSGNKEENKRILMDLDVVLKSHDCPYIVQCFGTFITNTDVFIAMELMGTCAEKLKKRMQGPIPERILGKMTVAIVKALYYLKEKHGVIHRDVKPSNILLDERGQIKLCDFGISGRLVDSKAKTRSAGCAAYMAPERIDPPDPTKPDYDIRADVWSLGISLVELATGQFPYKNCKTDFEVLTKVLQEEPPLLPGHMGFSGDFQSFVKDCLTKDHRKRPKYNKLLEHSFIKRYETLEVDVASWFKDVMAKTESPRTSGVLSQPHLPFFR

MSSK1(h) = MSSK1(h) (Homo sapiens, UniProt Q9UPE1)
MSSK1(h), sequence (Q9UPE1 whole entry): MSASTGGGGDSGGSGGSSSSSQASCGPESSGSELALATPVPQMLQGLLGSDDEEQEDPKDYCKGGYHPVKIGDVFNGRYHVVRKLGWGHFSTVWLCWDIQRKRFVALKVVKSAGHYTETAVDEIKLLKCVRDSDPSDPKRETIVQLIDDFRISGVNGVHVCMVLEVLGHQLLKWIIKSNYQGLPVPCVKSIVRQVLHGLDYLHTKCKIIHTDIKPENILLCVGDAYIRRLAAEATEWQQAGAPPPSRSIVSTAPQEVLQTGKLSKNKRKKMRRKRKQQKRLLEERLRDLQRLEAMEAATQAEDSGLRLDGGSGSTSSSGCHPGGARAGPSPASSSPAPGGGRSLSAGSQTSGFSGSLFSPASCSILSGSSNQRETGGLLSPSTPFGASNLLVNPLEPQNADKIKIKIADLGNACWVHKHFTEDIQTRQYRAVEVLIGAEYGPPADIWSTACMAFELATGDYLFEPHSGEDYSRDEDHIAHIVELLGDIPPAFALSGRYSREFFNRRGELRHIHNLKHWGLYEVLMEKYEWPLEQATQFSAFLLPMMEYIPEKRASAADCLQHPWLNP

PI 3-Kinaseδ(h) = PI 3-Kinaseδ(h) (Homo sapiens, UniProt O00329)
PI 3-Kinaseδ(h), sequence (O00329 whole entry): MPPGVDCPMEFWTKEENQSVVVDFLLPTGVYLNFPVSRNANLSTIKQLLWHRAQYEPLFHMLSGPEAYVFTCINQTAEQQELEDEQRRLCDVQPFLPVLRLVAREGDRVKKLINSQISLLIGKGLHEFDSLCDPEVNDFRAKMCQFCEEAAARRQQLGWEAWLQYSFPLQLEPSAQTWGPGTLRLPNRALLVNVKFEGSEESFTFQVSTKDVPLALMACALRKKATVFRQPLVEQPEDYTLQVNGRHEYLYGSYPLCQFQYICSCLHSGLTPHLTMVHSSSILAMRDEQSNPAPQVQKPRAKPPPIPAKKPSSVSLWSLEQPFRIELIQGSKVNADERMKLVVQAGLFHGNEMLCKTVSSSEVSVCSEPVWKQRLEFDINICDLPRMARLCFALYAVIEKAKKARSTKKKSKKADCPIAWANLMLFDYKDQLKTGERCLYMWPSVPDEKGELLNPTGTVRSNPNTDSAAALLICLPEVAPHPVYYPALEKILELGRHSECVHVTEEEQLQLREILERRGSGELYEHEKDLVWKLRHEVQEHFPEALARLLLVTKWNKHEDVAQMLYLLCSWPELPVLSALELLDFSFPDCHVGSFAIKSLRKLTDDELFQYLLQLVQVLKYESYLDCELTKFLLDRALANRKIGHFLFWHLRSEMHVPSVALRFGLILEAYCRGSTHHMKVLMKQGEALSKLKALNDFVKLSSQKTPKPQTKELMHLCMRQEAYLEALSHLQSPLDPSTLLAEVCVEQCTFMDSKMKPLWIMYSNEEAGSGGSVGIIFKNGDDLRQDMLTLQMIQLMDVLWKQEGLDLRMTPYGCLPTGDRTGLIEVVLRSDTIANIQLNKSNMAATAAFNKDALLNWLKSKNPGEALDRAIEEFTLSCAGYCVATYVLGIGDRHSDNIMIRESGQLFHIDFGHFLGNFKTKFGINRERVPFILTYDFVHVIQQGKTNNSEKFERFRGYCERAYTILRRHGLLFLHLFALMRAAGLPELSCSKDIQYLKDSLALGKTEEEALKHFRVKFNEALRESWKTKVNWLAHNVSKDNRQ
PI 3-Kinaseδ(h), sequence (P27986 2-724 partner limits assumed): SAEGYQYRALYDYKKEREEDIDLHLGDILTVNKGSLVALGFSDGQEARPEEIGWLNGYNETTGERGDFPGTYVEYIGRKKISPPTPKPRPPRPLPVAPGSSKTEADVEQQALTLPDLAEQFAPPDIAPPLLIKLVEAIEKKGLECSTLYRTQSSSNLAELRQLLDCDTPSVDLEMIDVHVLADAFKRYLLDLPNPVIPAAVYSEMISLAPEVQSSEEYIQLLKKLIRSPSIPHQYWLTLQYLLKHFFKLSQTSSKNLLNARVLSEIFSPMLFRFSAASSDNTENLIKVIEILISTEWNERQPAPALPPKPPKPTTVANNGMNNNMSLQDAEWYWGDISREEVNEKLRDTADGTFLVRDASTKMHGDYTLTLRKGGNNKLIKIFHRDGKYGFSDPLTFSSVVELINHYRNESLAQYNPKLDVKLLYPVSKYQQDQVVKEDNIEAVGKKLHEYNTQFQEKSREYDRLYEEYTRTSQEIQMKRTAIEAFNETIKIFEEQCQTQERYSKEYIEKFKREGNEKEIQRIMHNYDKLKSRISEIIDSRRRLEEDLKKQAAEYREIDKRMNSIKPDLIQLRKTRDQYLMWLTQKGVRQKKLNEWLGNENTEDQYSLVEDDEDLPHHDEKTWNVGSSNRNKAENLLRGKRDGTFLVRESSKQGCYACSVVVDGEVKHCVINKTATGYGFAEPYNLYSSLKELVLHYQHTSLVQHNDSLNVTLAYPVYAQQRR

PKCθ(h) = PKCθ(h) (Homo sapiens, UniProt Q04759)
PKCθ(h), sequence (Q04759 whole entry): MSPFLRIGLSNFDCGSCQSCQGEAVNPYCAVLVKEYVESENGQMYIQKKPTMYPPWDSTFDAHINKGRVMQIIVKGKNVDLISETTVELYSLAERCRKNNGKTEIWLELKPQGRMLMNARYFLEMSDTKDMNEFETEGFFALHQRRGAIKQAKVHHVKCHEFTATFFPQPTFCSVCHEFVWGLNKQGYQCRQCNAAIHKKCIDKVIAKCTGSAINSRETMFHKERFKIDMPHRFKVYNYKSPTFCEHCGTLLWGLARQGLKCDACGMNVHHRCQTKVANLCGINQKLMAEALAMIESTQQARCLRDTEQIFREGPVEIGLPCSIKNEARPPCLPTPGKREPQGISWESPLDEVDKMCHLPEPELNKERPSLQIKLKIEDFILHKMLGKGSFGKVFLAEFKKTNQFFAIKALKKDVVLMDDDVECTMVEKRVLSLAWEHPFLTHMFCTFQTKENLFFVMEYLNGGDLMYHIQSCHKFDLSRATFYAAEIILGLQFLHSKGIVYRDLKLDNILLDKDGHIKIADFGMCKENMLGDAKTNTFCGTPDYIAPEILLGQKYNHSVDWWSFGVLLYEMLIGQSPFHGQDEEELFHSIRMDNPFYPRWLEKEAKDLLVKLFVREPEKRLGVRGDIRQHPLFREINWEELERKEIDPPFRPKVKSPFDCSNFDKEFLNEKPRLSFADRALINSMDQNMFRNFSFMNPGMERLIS

Rsk1(r) = Rsk1(r) (Rattus norvegicus, UniProt Q63531)
Rsk1(r), sequence (Q63531 whole entry): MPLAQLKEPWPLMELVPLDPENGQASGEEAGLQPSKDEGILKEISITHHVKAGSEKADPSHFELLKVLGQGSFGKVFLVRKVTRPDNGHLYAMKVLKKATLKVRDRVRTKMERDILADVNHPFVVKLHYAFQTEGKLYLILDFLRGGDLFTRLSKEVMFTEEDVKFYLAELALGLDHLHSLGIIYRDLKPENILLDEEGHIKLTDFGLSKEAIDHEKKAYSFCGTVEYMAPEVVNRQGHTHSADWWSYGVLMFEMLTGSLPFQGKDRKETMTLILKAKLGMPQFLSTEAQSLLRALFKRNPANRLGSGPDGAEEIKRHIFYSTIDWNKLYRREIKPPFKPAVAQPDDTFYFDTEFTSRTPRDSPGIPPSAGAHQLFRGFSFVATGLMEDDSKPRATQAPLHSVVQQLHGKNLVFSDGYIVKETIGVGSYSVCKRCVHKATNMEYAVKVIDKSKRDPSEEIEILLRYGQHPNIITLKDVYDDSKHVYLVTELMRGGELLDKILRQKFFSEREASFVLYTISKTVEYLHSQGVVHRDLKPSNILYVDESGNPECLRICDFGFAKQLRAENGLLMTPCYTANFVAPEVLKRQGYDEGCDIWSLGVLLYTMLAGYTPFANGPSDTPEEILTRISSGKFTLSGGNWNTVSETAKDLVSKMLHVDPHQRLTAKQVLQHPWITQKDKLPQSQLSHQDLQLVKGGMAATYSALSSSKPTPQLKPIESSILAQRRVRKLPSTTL

SAPK2b(h) = SAPK2b(h) (Homo sapiens, UniProt Q15759)
SAPK2b(h), sequence (Q15759 whole entry): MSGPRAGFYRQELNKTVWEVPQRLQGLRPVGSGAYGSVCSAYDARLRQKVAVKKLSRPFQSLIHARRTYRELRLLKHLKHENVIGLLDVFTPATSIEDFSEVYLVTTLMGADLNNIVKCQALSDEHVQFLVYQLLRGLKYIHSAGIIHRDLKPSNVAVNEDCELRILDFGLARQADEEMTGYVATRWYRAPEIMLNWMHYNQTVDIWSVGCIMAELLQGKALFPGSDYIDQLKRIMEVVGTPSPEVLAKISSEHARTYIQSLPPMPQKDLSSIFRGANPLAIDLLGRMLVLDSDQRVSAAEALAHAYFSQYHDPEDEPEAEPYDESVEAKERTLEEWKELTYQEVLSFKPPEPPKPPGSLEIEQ

CC(C)CCC(=O)[C@]1(O)C(O)=C(C(=O)C(C)C)C(=O)[C@H]1CCC(C)C [TH2, tetrahydroiso-cohumulone]
kinase inhibition (Abl(Q252H)(h); 1 μg/ml): 96% of control
kinase inhibition (Abl(Q252H)(h); 5 μg/ml): 96% of control
kinase inhibition (Abl(Q252H)(h); 25 μg/ml): 66% of control
kinase inhibition (Abl(Q252H)(h); 50 μg/ml): 68% of control
kinase inhibition (Abl(Q252H)(h); 100 μg/ml): 47% of control
kinase inhibition (BrSK1(h); 1 μg/ml): 104% of control
kinase inhibition (BrSK1(h); 5 μg/ml): 101% of control
kinase inhibition (BrSK1(h); 25 μg/ml): 82% of control
kinase inhibition (BrSK1(h); 50 μg/ml): 66% of control
kinase inhibition (BrSK1(h); 100 μg/ml): 50% of control
kinase inhibition (DAPK2(h); 1 μg/ml): 61% of control
kinase inhibition (DAPK2(h); 5 μg/ml): 56% of control
kinase inhibition (DAPK2(h); 25 μg/ml): 55% of control
kinase inhibition (DAPK2(h); 50 μg/ml): 52% of control
kinase inhibition (DAPK2(h); 100 μg/ml): 49% of control
kinase inhibition (GSK3β(h); 1 μg/ml): 98% of control
kinase inhibition (GSK3β(h); 5 μg/ml): 86% of control
kinase inhibition (GSK3β(h); 25 μg/ml): 55% of control
kinase inhibition (GSK3β(h); 50 μg/ml): 44% of control
kinase inhibition (GSK3β(h); 100 μg/ml): 40% of control
kinase inhibition (MKK7β(h); 1 μg/ml): 100% of control
kinase inhibition (MKK7β(h); 5 μg/ml): 110% of control
kinase inhibition (MKK7β(h); 25 μg/ml): 111% of control
kinase inhibition (MKK7β(h); 50 μg/ml): 82% of control
kinase inhibition (MKK7β(h); 100 μg/ml): 72% of control
kinase inhibition (MSSK1(h); 1 μg/ml): 105% of control
kinase inhibition (MSSK1(h); 5 μg/ml): 84% of control
kinase inhibition (MSSK1(h); 25 μg/ml): 43% of control
kinase inhibition (MSSK1(h); 50 μg/ml): 50% of control
kinase inhibition (MSSK1(h); 100 μg/ml): 39% of control
kinase inhibition (PI 3-Kinaseδ(h); 1 μg/ml): 97% of control
kinase inhibition (PI 3-Kinaseδ(h); 5 μg/ml): 89% of control
kinase inhibition (PI 3-Kinaseδ(h); 25 μg/ml): 62% of control
kinase inhibition (PI 3-Kinaseδ(h); 50 μg/ml): 18% of control
kinase inhibition (PI 3-Kinaseδ(h); 100 μg/ml): 52% of control
kinase inhibition (PKCθ(h); 1 μg/ml): 101% of control
kinase inhibition (PKCθ(h); 5 μg/ml): 84% of control
kinase inhibition (PKCθ(h); 25 μg/ml): 116% of control
kinase inhibition (PKCθ(h); 50 μg/ml): 96% of control
kinase inhibition (PKCθ(h); 100 μg/ml): 83% of control
kinase inhibition (Rsk1(r); 1 μg/ml): 101% of control
kinase inhibition (Rsk1(r); 5 μg/ml): 102% of control
kinase inhibition (Rsk1(r); 25 μg/ml): 93% of control
kinase inhibition (Rsk1(r); 50 μg/ml): 63% of control
kinase inhibition (Rsk1(r); 100 μg/ml): 36% of control
kinase inhibition (SAPK2b(h); 1 μg/ml): 117% of control
kinase inhibition (SAPK2b(h); 5 μg/ml): 110% of control
kinase inhibition (SAPK2b(h); 25 μg/ml): 108% of control
kinase inhibition (SAPK2b(h); 50 μg/ml): 108% of control
kinase inhibition (SAPK2b(h); 100 μg/ml): 111% of control
